Measured values published in patent US20110076274A1, “MATERIALS AND METHODS RELATING TO A G-PROTEIN COUPLED RECEPTOR” (priority 2008, published 2011).
Like-named read-outs stand apart in the source and are kept apart here.

Columns and labels:
human osteoclasts = experiment: Cell polarisation (F-actin rings) and resorption by human osteoclasts; assay type: cell-based
Text: Number of F-actin rings in osteoclast cultures, expressed as percentage of vehicle (0.1% DMSO) control±SEM (n=4-7 experiments with five replicates for each). ** P<0.01 compared to control, ANOVA with Dunnett's multiple comparison test.

MDA-MB231 subclone = experiment: Boyden chamber chemotaxis assay, Protocol I (ligand concentration gradient); assay type: cell-based, human; conditions: serum starved cells; test drug (1 μM per Protocol I) in 0.01% DMSO in lower wells; 4 hours
Protocol: 10 μl of the resulting cell suspension was transferred to a haemocytometer and the number of cells per ml of suspension was calculated from the counted cell number. Serum free medium was added to the cell suspension in a quantity necessary to bring the suspension to a cell number of 1×10^6 cells per ml. […]

GPR55 [1] = molecular target: T1, GPR55 (Homo sapiens, UniProt Q9Y2T6); conditions: cited from earlier work; for EC50: source per value in footnotes (Johns 2007, Ryberg 2007, Brown 2007), read-out: GTPγS EC50
T1 sequence (Q9Y2T6 whole entry): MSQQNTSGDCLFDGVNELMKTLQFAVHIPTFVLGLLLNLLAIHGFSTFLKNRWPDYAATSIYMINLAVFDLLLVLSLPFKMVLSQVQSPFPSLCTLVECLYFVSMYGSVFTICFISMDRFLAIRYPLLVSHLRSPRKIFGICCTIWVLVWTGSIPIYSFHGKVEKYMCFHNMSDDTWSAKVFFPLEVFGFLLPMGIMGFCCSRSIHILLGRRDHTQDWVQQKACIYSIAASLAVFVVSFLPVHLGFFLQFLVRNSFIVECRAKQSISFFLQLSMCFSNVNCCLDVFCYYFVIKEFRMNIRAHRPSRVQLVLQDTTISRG

GPR55 [2] = molecular target: T1, GPR55; conditions: cited from earlier work
CB2 [3] = molecular target: T2, CB2 (Homo sapiens, UniProt P34972); conditions: cited from earlier work
T2 sequence (P34972 whole entry, species assumed): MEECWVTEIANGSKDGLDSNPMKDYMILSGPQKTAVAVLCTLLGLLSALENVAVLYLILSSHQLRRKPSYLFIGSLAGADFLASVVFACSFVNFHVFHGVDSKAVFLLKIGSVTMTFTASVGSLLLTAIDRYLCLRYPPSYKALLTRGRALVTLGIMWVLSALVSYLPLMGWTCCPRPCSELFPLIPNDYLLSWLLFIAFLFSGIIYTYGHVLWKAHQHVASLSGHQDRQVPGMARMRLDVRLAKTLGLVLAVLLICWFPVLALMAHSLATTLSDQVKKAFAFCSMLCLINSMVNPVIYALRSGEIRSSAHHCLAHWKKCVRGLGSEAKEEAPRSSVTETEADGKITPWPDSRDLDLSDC

MDA-MB231 = experiment: Boyden chamber chemotaxis assay, CBD as chemoattractant (FIG. 8); assay type: cell-based, human; conditions: serum starved cells; CBD with 0.01% DMSO
Protocol: (§1) Cells used for all chemotaxis assays were bathed in their respective serum-free media and incubated for 19 hours prior to experimentation. The serum starved cells were washed with 5 ml PBS and dissociated from their growth plate using 5 ml of non-enzymatic cell dissociation solution. 5 ml of the respective serum free medium was added after dissociation of the cells, and the cell suspension was transferred to a universal container and centrifuged at 2000 rpm for 5 minutes. The supernatant fluid was discarded and the remaining cell pellet was re-suspended in 2 ml of serum free medium.
(§2) 10 μl of the resulting cell suspension was transferred to a haemocytometer and the number of cells per ml of suspension was calculated from the counted cell number. Serum free medium was added to the cell suspension in a quantity necessary to bring the suspension to a cell number of 1×10^6 cells per ml.
Solutions of 10% FBS (with 0.01% DMSO vehicle), 0.01% DMSO vehicle control and 1 μM of test drug (O-1602 in 0.01% DMSO vehicle), were prepared. […]
(§3) Migrated cells were counted using a Leitz microscope. Individual wells and their borders were visualised using a 10× objective lens and cells were then counted using a 40× objective lens. Cells found in one quarter of three non-overlapping 40× fields within each migration well were counted. The same fields were chosen in every well counted. […]

MDA-MB231 cells = experiment: Boyden chamber migration towards FBS, Protocol II (pre-treatment of cells); assay type: cell-based, human; conditions: for Tumour cell chemotaxis (migration) to FBS after pre-incubation: 1 μM pre-incubation 30 minutes, 10% FBS, no compound gradient, 4 hours
Protocol: as §1, §2
(§4) Two aliquots of the 1×10^6 cells/ml, cell suspension were prepared, and quantities of 0.1% DMSO and […] (both with 0.1% DMSO vehicle) were added to one aliquot each, to bring the cell suspension concentrations to 0.01% DMSO and 1 μM test compound (with 0.01% DMSO vehicle). The cell suspensions were incubated with each compound for 30 minutes at 37° C. in 5% CO2. […]
as §3
The results for all assays done with each individual drug type were pooled by calculating the mean number of cells migrating in 0.01% DMSO vehicle control wells. The cell number for each individual well was then expressed as a percentage of the vehicle mean.

MDA-MB-231 cells [4] = experiment: Cultrex Cell Invasion Assay towards FBS; assay type: cell-based, human; conditions: CBD 1 μM pre-incubation; 24 hours
Protocol: (§5) Cell were cultured to 80% confluence then serum starved overnight prior to beginning the assay. On ice, a 0.5×BME stock solution was prepared from the 5× stock in a conical tube and inverted to mix. 100 μl of BME stock solution was aliquoted into each well of the 24 well plate and the chamber incubated at 37° C. overnight. The following morning cells were harvested, washed once using 1× wash buffer, counted, and re-suspended to a density of 5×10^5 cells ml^−1. The top chamber was then carefully aspirated, taking care not to let chambers dry out, and 100 μl of cells per well added to the top chamber. 500 μl of media per well (with or without chemoattractant) was then added to the lower wells of the chamber. The chamber was then assembled and incubated at 37° C. in a humidified environment for 24 hours. The following day the upper chamber was carefully aspirated and washed with 100 μl of 1× wash buffer, and lower wells washed with 500 μl of wash buffer. 12 μl of Calcein-AM solution was added to 12 mL of cell dissociation fluid, and 500 μl of this solution added to the lower chamber. The chamber was then re-assembled and incubated at 37° C. for one hour. The upper chamber was then removed, and dissolved Calcein-AM was read at 485 nm excitation, 520 nm emission.

[5] = test system: control (empty vector transfected) MCF7 cells; experiment: Cultrex Cell Invasion Assay, empty vector transfected MCF7; assay type: cell-based, human
Protocol: as §5, with “emission. […]” for “emission.”

[6] = test system: GPR55 over-expressing MCF7 cells; experiment: Cultrex Cell Invasion Assay, GPR55 over-expressing MCF7; assay type: cell-based, human
Protocol: as §5, with “emission. […]” for “emission.”

MDA-MB-231 cells [7] = experiment: alamarBlue assay of cell viability; assay type: cell-based, human
CB1 [8] = molecular target: T3, CB1 (Homo sapiens, UniProt P21554); conditions: cited from earlier work
T3 sequence (P21554 whole entry, species assumed): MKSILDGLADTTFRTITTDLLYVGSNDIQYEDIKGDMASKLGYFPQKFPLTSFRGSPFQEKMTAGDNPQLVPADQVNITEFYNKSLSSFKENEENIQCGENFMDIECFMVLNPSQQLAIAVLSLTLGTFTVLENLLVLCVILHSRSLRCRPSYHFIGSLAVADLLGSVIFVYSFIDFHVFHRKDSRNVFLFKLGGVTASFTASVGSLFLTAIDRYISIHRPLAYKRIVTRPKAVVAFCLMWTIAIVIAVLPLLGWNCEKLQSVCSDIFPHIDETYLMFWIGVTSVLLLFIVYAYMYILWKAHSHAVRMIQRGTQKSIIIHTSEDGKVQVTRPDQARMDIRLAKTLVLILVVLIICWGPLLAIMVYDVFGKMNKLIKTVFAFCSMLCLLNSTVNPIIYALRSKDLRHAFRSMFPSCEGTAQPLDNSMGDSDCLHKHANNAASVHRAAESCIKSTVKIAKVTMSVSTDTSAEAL

GPR55 [9] = molecular target: T1, GPR55; conditions: footnote of Table 1
CB1 [10] = molecular target: T3, CB1; conditions: Ryberg et al., 2007, read-out: GTPγS EC50; cited from earlier work
CB2 [11] = molecular target: T2, CB2; conditions: Ryberg et al., 2007, read-out: GTPγS EC50; cited from earlier work
[12] = test system: vector transfected MCF7 cells; experiment: Boyden chamber chemotaxis assay, vector transfected MCF7; assay type: cell-based, human; conditions: LPI pre-incubation 1 μM
Protocol: as §1, §2, §4

[13] = test system: MCF7 cells transiently over-expressing GPR55; experiment: Boyden chamber chemotaxis assay, GPR55 over-expressing MCF7; assay type: cell-based, human; conditions: LPI pre-incubation 1 μM
Protocol: as §1, §2, §4

GPR55 [14] = molecular target: T1, GPR55; conditions: Oka et al., 2007, read-out: ERK Phosphorylation EC50; cited from earlier work
MG-63 cells = experiment: Endocannabinoid levels in MG-63 cells treated with PTH; assay type: cell-based, human
Protocol: Cells were washed in PBS and treated for 90 minutes with 200 ug/ml LPS. Values represent the mean±SEM from 3 separate donors. […] Levels of anandamide were undetectable in two control samples which precludes statistical analysis. (C) 2-AG levels in MG-63 cells treated with PTH. Cells were treated for the times indicated with 40 nM or 100 nM PTH. The results are expressed as percentage of control and are the means±SEM (n=2-4 experiments, duplicate samples for each), ** P<0.01 compared to control, ANOVA with Dunnett's multiple comparison test.

CCCCC/C=C\C/C=C\C/C=C\C/C=C\CCCC(=O)OC(CO)CO [2-AG]
Resorptive activity (human osteoclasts; 10 nM and 100 nM): significant increase | Cell polarisation i.e. number of F-actin rings (human osteoclasts; 10 nM and 100 nM, 5 days): significant increase | Stimulatory effect on polarisation and resorption at higher concentration (human osteoclasts; 1 μM): lost

CCCCC/C=C\C/C=C\C/C=C\C/C=C\CCCC(=O)NCCO [AEA, anandamide]
Cell migration compared to vehicle control (chemoattractant effect) (MDA-MB231 subclone): significant increase in cell number | F-actin ring number (human osteoclasts; 10 nM to 1 μM): did not result in a significant change | Resorption (human osteoclasts; 10 nM to 1 μM): significantly stimulate | EC50 (GPR55 [1]): 18 nM | Drug action on receptors: GPR55 (GPR55 [2]): Agonist | Drug action on receptors: CB2 (CB2 [3]): Agonist

C=C(C)[C@@H]1CCC(C)=C[C@H]1c1c(O)cc(CCCCC)cc1O [CBD, Cannabidiol]
Tumour cell migration compared to control (chemoattractant effect) (MDA-MB231): no effect on tumour cell migration | Tumour cell chemotaxis (migration) to FBS after pre-incubation (MDA-MB231 cells): significantly inhibits | Effect on LPI-increased chemotaxis to FBS (MDA-MB231 cells; co-incubation LPI (1 μM) combined with CBD (1 μM)): prevented | Tumour cell invasion towards FBS after pre-incubation (MDA-MB-231 cells [4]): significantly attenuated | Basal invasion [5]: no effect | FBS-induced invasion [6]: significantly inhibited | Cytotoxic action (cell viability) (MDA-MB-231 cells [7]; 1 μM treatment for 24 hours (invasion assay)): no cytotoxic action | Cytotoxic action (cell viability) (MDA-MB-231 cells [7]; concentrations up to 10 μM, treatment for 4 hours (migration assay)): no cytotoxic action | IC50 (GPR55 [1]; antagonist, Brown, 2007, read-out: GTPγS IC50): 350 nM | Drug action on receptors: GPR55 (GPR55 [2]): Antagonist^2 | Drug action on receptors: CB1 (CB1 [8]): Antagonist^7

CCCCCCC(C)(C)c1ccc([C@@H]2C[C@H](O)CC[C@H]2CCCO)c(O)c1 [CP55940, (−)-cis-3-[2-hydroxy-4-(1,1-dimethylheptyl)phenyl]-trans-4-(3-hydroxypropyl)cyclohexanol]
Drug action on receptors: GPR55 (GPR55 [2]): agonists

CCCn1c(C)c(C(=O)c2cccc3ccccc23)c2ccccc21 [JWH015]
EC50 (GPR55 [1]): 4 nM | Drug action on receptors: GPR55 (GPR55 [2]): Agonist

C=C(C)[C@@H]1CCC(C)=C[C@H]1c1c(C)cc(O)cc1O [O-1602]
Selectivity for GPR55 versus CB1 and CB2 (in words) (GPR55 [9]): Compounds such as O-1602 and LPI are therefore thought to be relatively selective GPR55 agonists, whilst AEA has a broad specificity. | Cell migration compared to vehicle control (chemoattractant effect) (MDA-MB231 subclone): significant increase in cell migration | EC50 (CB1 [10]): > 30000 nM | EC50 (CB2 [11]): > 30000 nM | Drug action on receptors: GPR55 (GPR55 [2]): Agonist | Drug action on receptors: CB1 (CB1 [8]): No action^3 | Drug action on receptors: CB2 (CB2 [3]): No action

CCCCCc1cc(O)c2c(c1)OC(C)(C)[C@@H]1CCC(C)=C[C@@H]21 [THC, Δ-9-Tetrahydrocannabinol]
Drug action on receptors: GPR55 (GPR55 [2]): agonists

lysophosphatidylinositol [LPI]
Selectivity for GPR55 versus CB1 and CB2 (in words) (GPR55 [9]): Compounds such as O-1602 and LPI are therefore thought to be relatively selective GPR55 agonists, whilst AEA has a broad specificity. | Tumour cell chemotaxis (migration) to FBS after pre-incubation (MDA-MB231 cells): significantly increases | Migration towards FBS [12]: unaffected | FBS-induced migration [13]: enhanced | EC50 (GPR55 [14]): ~200 nM | Drug action on receptors: GPR55 (GPR55 [2]): Agonist^6

B1: PTH: PTH, 40 nM or 100 nM, activates the PTH receptor (peptide, UniProt P01270 32-115, looked up)
Parathyroid hormone: SVSEIQLMHNLGKHLNSMERVEWLRKKLQDVHNFVALGAPLAPRDAGSQRPRKKEDNVLVESHEKSLGEADKADVNVLTKAKSQ
modifications: Parathyroid hormone
Levels of 2-AG detected in MG-63 cells (MG-63 cells; prolonged treatment with 40 nM or 100 nM PTH): significant increase | Levels of anandamide detected in MG-63 cells (MG-63 cells; prolonged treatment with PTH, data not shown): no change
